The assay concerns human embryonic stem cell derived neural stem cells (NSCs). The assay can be described thus: Neural stem cell proliferation assay (neurogenesis assay). The note with it: Homo sapiens, Neural stem cell, 96 h, concentration at which 150% activity of control (100%) is reached, ATP levels (CellTiterGlo) after 4 days incubation. Type of assay: cell-based. The method in brief:
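NSCs derived from human ES cells by dual SMAD inhibition, seeded on polyornithin/laminin, dosed 4 h later (11 points, 8 μM to 8 nM). After 4 days at 37° C, ATP luminescence read; response = compound/medium control ×100, EC150 = concentration giving 150% of control.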
(In general: In ATP-based viability assays light output follows the ATP content of the culture.)

Structures are written as SMILES.

Compound `Cc1ccc(-c2cncc3ccc(C(N)=O)nc23)cc1` [Example 80, 8-Tolyl-1,6-naphthyridine-2-carboxamide] had an EC (150% of control) (Table 1, novel compounds) of 0.03 µM.

For the setting “Table 1, novel compounds”, `CS(=O)(=O)CCNC(=O)c1ccc2cncc(-c3ccc(F)cc3)c2n1` [Example 135, 8-(4-Fluorophenyl)-N-(2-(methylsulfonyl)ethyl)-1,6-naphthyridine-2-carboxamide] gave an EC (150% of control) of 0.08 µM.

`NC(=O)c1ccc2cncc(-c3ccc(F)c(F)c3)c2n1` [Example 83, 8-(3,4-Difluorophenyl)-1,6-naphthyridine-2-carboxamide]: the EC (150% of control) (Table 1, novel compounds) was 0.1 µM.

In turn, `CC(NC(=O)c1ccc2cncc(-c3ccc(Cl)cc3)c2n1)c1cccc(S(C)(=O)=O)c1` (single isomer, unassigned; (-)) [Example 52, (−)-8-(4-Chloro-phenyl)-[1,6]naphthyridine-2-carboxylic acid [(S or R)-1-(3-methanesulfonyl-phenyl)-ethyl]-amide] had an EC (150% of control) (Table 1, novel compounds) of 0.8 µM.

Consider `O=C(NCCC(F)(F)F)c1ccc2cncc(-c3ccc(Cl)cc3)c2n1` [Example 64, 8-(4-Chlorophenyl)-N-(3,3,3-trifluoropropyl)-1,6-naphthyridine-2-carboxamide], for which the EC (150% of control) (Table 1, novel compounds) was 0.15 µM.

Compound `Cc1cc2cncc(-c3ccc(C(F)(F)F)cc3)c2nc1C(N)=O` [Example 157, 3-Methyl-8-[4-(trifluoromethyl)phenyl]-1,6-naphthyridine-2-carboxamide] showed an EC (150% of control) (Table 1, novel compounds) of 0.88 µM.

In the case of `COc1cccc(-c2cncc3ccc(C(N)=O)nc23)c1` [Example 143, 8-(3-Methoxyphenyl)-1,6-naphthyridine-2-carboxamide], the EC (150% of control) (Table 1, novel compounds) was 0.24 µM.

Where the note is “Table 2, known compounds”, `O=C(NC1CCN(Cc2ccccc2)CC1)c1ccc2cncc(-c3ccccc3)c2n1` [Example 193, 8-Phenyl-[1,6]naphthyridine-2-carboxylic acid (1-benzyl-piperidin-4-yl)-amide] showed an EC (150% of control) of 1.9 µM.

Consider `O=C(NCc1ccccc1)c1ccc2cncc(-c3ccsc3)c2n1` [Example 199, 8-Thiophen-3-yl-[1,6]naphthyridine-2-carboxylic acid benzylamide], for which, for the setting “Table 2, known compounds”, the EC (150% of control) worked out at 0.1 µM.

For `CCCCCCNC(=O)Cc1cccc(-c2cncc3ccc(C(N)=O)nc23)c1` [Example 148, 8-(3-(2-(Hexylamino)-2-oxoethyl)phenyl)-1,6-naphthyridine-2-carboxamide], the EC (150% of control) (Table 1, novel compounds) was 0.18 µM.

Take `CN1CCN(C(=O)c2ccc3cncc(-c4ccc(Cl)cc4)c3n2)CC1` [Example 73, (8-(4-Chlorophenyl)-1,6-naphthyridin-2-yl)(4-methylpiperazin-1-yl)methanone]: under “Table 1, novel compounds”, the EC (150% of control) worked out at 0.64 µM.

As for `O=C(NCc1ccncc1)c1ccc2cncc(-c3ccncc3)c2n1` [Example 32, 8-(Pyridin-4-yl)-N-(pyridin-4-ylmethyl)-1,6-naphthyridine-2-carboxamide], the EC (150% of control) (Table 1, novel compounds) is 0.29 µM.

In turn, `O=C(Nc1ccccc1)c1ccc2cncc(-c3ccc(Cl)cc3)c2n1` [Example 53, 8-(4-Chlorophenyl)-N-phenyl-1,6-naphthyridine-2-carboxamide] yielded an EC (150% of control) (Table 1, novel compounds) of 0.23 µM.

Take `O=C(NCc1ccccc1)c1ccc2cncc(-c3ccc(Cl)cc3)c2n1` [Example 13, N-Benzyl-8-(4-chlorophenyl)-1,6-naphthyridine-2-carboxamide]: the EC (150% of control) (Table 1, novel compounds) is 0.05 µM.

Regarding `COCCNC(=O)c1ccc2cnccc2n1` [Example 4, N-(2-Methoxyethyl)-1,6-naphthyridine-2-carboxamide], the EC (150% of control) (Table 1, novel compounds) was found to be 0.5 µM.

For the setting “Table 1, novel compounds”, `CS(=O)(=O)c1ccc(-c2cncc3ccc(C(N)=O)nc23)cc1` [Example 86, 8-(4-(Methylsulfonyl)phenyl)-1,6-naphthyridine-2-carboxamide] came in with an EC (150% of control) of 0.03 µM.

As to `O=C(NCCCn1ccnc1)c1ccc2cncc(-c3ccc(Cl)cc3)c2n1` [Example 37, N-(3-(1H-Imidazol-1-yl)propyl)-8-(4-chlorophenyl)-1,6-naphthyridine-2-carboxamide], the EC (150% of control) (Table 1, novel compounds) turned out to be 0.12 µM.

The compound `O=C(NCc1ccccc1)c1ccc2cncc(-c3ccncc3)c2n1` [Example 16, N-Benzyl-8-(pyridin-4-yl)-1,6-naphthyridine-2-carboxamide] showed an EC (150% of control) (Table 1, novel compounds) of 0.04 µM.

On to `COc1ccccc1CNC(=O)c1ccc2cncc(-c3ccsc3)c2n1` [Example 202, 8-Thiophen-3-yl-[1,6]naphthyridine-2-carboxylic acid 2-methoxy-benzylamide], for which, where the note is “Table 2, known compounds”, the EC (150% of control) turned out to be 0.15 µM.

On to `CC(C)(C)CNC(=O)c1ccc2cncc(-c3ccccc3F)c2n1` [Example 118, 8-(2-Fluorophenyl)-N-neopentyl-1,6-naphthyridine-2-carboxamide], for which the EC (150% of control) (Table 1, novel compounds) was determined as 0.04 µM.

`COc1ccc(-c2cncc3ccc(C(=O)NCc4cnc(C)cn4)nc23)cc1` [Example 180, 8-(4-Methoxy-phenyl)-[1,6]naphthyridine-2-carboxylic acid (5-methyl-pyrazin-2-ylmethyl)-amide] registered an EC (150% of control) (Table 2, known compounds) of 1.26 µM.

For the setting “Table 2, known compounds”, `COc1ccc(-c2cncc3ccc(C(=O)NCc4ccccc4)nc23)cc1` [Example 184, 8-(4-Methoxy-phenyl)-[1,6]naphthyridine-2-carboxylic acid benzylamide] registered an EC (150% of control) of 0.16 µM.

Take `CC(NC(=O)c1ccc2cncc(-c3ccc(F)cc3F)c2n1)c1ccc(S(C)(=O)=O)cc1` (centres unmarked) [Example 110, 8-(2,4-Difluorophenyl)-N-(1-(4-(methylsulfonyl)phenyl)ethyl)-1,6-naphthyridine-2-carboxamide]: the EC (150% of control) (Table 1, novel compounds) turned out to be 0.49 µM.

With `O=C(NCc1ccncc1)c1ccc2cncc(-c3ccccc3Cl)c2n1` [Example 30, 8-(2-Chlorophenyl)-N-(pyridin-4-ylmethyl)-1,6-naphthyridine-2-carboxamide], under “Table 1, novel compounds”, the EC (150% of control) is 0.49 µM.

In the case of `CS(=O)(=O)c1ccc(CNC(=O)c2ccc3cncc(-c4ccc(F)c(F)c4)c3n2)cc1` [Example 115, 8-(3,4-Difluorophenyl)-N-(4-(methylsulfonyl)benzyl)-1,6-naphthyridine-2-carboxamide], the EC (150% of control) (Table 1, novel compounds) stood at 1.95 µM.

Take `CS(=O)(=O)CCNC(=O)c1ccc2cncc(-c3ccc(F)c(F)c3)c2n1` [Example 137, 8-(3,4-Difluorophenyl)-N-(2-(methylsulfonyl)ethyl)-1,6-naphthyridine-2-carboxamide]: under “Table 1, novel compounds”, the EC (150% of control) is 0.35 µM.

`CN(C)c1cc(-c2cncc3ccc(C(N)=O)nc23)ccn1` [Example 140, 8-(2-(Dimethylamino)pyridin-4-yl)-1,6-naphthyridine-2-carboxamide]: the EC (150% of control) (Table 1, novel compounds) was 0.147 µM.

On to `Cc1ccccc1-c1cncc2ccc(C(N)=O)nc12` [Example 82, 8-o-Tolyl-1,6-naphthyridine-2-carboxamide], for which the EC (150% of control) (Table 1, novel compounds) was 2.05 µM.

In the case of `NC(=O)c1ccc2cncc(-c3ccc(Cl)cc3)c2n1` [Example 44, 8-(4-Chlorophenyl)-1,6-naphthyridine-2-carboxamide], the EC (150% of control) (Table 1, novel compounds) was determined as 0.03 µM.

As to `Cc1cc2cncc(-c3ccc(Cl)cc3)c2nc1C(N)=O` [Example 152, 8-(4-Chlorophenyl)-3-methyl-1,6-naphthyridine-2-carboxamide], the EC (150% of control) (Table 1, novel compounds) was 0.34 µM.

Turning to `CS(=O)(=O)c1ccc(CNC(=O)c2ccc3cncc(-c4cccc(F)c4)c3n2)cc1` [Example 113, 8-(3-Fluorophenyl)-N-(4-(methylsulfonyl)benzyl)-1,6-naphthyridine-2-carboxamide], the EC (150% of control) (Table 1, novel compounds) came out at 0.17 µM.

Under “Table 1, novel compounds”, `CC(NC(=O)c1ccc2cncc(-c3ccc(Cl)nc3)c2n1)C(C)(C)O` (centres unmarked) [Example 174, 8-(6-Chloropyridin-3-yl)-N-(3-hydroxy-3-methylbutan-2-yl)-1,6-naphthyridine-2-carboxamide] had an EC (150% of control) of 0.61 µM.

For the setting “Table 1, novel compounds”, `O=C(NCc1ccncn1)c1ccc2cncc(-c3ccc(Cl)cc3)c2n1` [Example 96, 8-(4-Chlorophenyl)-N-(pyrimidin-4-ylmethyl)-1,6-naphthyridine-2-carboxamide] came in with an EC (150% of control) of 0.17 µM.

For the setting “Table 1, novel compounds”, `O=C(NCC(F)(F)F)c1ccc2cncc(-c3ccc(F)cc3)c2n1` [Example 124, 8-(4-Fluorophenyl)-N-(2,2,2-trifluoroethyl)-1,6-naphthyridine-2-carboxamide] had an EC (150% of control) of 0.07 µM.

As to `NC(=O)c1ccc2cncc(-c3ccc(Cl)nc3)c2n1` [Example 159, 8-(6-Chloropyridin-3-yl)-1,6-naphthyridine-2-carboxamide], the EC (150% of control) (Table 1, novel compounds) stood at 0.18 µM.

In turn, `Cc1cc(-c2cncc3ccc(C(N)=O)nc23)ccn1` [Example 90, 8-(2-Methylpyridin-4-yl)-1,6-naphthyridine-2-carboxamide] showed an EC (150% of control) (Table 1, novel compounds) of 0.17 µM.

For the setting “Table 1, novel compounds”, `O=C(c1ccc2cncc(-c3ccc(Cl)cc3F)c2n1)N1CCC(O)C1` (centres unmarked) [Example 130, (8-(4-Chloro-2-fluorophenyl)-1,6-naphthyridin-2-yl)(3-hydroxypyrrolidin-1-yl)methanone] had an EC (150% of control) of 0.13 µM.

Take `COCc1cccc(-c2cncc3ccc(C(N)=O)nc23)c1` [Example 100, 8-(3-(Methoxymethyl)phenyl)-1,6-naphthyridine-2-carboxamide]: the EC (150% of control) (Table 1, novel compounds) was found to be 0.02 µM.

`NC(=O)c1ccc2cncc(-c3ccc(Cl)c(F)c3)c2n1` [Example 169, 8-(4-Chloro-3-fluorophenyl)-1,6-naphthyridine-2-carboxamide] registered an EC (150% of control) (Table 1, novel compounds) of 0.03 µM.

`Cc1cc2cncc(-c3ccc(C#N)cc3)c2nc1C(N)=O` [Example 155, 8-(4-Cyanophenyl)-3-methyl-1,6-naphthyridine-2-carboxamide]: the EC (150% of control) (Table 1, novel compounds) worked out at 0.7 µM.

Regarding `CS(=O)(=O)c1ccc(CNC(=O)c2ccc3cncc(-c4ccc(Cl)cc4)c3n2)cc1` [Example 50, 8-(4-Chlorophenyl)-N-(4-(methylsulfonyl)benzyl)-1,6-naphthyridine-2-carboxamide], the EC (150% of control) (Table 1, novel compounds) turned out to be 0.32 µM.

The values above are taken from US9657014B2, “Substituted 1,6-naphthyridines” (Hoffmann-La Roche Inc., priority 2012, dated 2017).
